The target in the assay is T1, Human ENaC δ, β and γ subunit (Homo sapiens, UniProt P51168+P51170+P51172).
T1 construct: expressed in transfected cells; host or cells: Xenopus laevis (African clawed frog) oocytes injected with cRNA
T1 sequence (P51172 1-802): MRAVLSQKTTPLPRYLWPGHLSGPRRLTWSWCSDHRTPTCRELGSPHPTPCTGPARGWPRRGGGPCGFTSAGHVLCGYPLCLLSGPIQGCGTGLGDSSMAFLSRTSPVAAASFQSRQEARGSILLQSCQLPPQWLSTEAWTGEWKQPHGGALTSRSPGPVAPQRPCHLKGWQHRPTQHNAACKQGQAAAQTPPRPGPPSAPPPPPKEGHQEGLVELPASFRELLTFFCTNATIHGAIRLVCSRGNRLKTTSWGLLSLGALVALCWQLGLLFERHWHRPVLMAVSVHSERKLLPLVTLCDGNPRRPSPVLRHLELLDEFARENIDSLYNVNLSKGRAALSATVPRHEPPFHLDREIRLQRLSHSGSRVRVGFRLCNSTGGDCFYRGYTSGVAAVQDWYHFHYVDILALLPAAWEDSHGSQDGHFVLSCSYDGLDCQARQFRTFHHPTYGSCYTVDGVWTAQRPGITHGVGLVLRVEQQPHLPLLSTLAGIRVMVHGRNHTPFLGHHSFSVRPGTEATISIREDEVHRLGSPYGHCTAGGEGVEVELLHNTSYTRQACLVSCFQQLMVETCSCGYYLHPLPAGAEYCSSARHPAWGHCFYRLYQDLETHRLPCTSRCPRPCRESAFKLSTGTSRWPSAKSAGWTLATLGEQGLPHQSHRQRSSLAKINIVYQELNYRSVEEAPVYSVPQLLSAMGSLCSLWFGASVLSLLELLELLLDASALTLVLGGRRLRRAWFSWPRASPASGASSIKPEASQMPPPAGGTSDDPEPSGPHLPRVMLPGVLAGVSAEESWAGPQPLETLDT
T1 sequence (P51168 1-640): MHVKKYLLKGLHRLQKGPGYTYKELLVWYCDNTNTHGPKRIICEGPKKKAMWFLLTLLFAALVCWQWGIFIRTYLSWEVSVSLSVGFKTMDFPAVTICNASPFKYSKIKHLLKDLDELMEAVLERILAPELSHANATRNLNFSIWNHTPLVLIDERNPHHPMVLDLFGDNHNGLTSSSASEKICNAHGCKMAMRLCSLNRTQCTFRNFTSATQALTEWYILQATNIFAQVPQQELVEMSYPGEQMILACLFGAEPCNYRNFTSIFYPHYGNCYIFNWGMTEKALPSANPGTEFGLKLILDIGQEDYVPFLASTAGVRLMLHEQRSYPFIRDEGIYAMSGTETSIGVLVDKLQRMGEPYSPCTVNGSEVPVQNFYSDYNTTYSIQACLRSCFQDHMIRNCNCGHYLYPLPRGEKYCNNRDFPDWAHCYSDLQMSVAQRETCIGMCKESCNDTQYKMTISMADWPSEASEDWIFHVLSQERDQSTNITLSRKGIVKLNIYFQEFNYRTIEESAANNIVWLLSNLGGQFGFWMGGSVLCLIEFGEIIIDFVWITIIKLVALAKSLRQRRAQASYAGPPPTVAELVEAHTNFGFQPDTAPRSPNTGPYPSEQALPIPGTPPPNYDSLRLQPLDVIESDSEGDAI
T1 sequence (P51170 1-649): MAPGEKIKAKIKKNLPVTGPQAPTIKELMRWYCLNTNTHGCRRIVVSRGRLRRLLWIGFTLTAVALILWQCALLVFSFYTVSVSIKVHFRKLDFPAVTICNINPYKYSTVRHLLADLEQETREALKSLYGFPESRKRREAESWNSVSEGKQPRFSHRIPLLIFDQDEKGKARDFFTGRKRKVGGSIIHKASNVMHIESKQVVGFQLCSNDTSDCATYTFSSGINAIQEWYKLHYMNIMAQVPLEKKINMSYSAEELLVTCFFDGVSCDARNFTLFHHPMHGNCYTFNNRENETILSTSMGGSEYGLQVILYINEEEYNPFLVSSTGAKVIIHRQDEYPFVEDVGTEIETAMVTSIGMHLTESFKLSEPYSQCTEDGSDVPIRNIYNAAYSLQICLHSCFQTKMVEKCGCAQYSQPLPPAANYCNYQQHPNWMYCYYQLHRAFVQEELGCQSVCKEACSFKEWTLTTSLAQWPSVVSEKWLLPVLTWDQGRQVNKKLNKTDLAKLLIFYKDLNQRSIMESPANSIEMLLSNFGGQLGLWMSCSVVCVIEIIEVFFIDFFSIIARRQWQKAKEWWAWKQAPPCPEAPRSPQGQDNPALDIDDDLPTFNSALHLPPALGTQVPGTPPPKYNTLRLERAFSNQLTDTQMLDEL
Briefly: Measurement of ENaC activation potency (MED) in ENaC-expressing oocyte, Two Electrode Voltage Clamp. The assay is classed as cell-based. The following applies: minimum effective dose at which current started to increase; ENaC-expressing African clawed frog oocyte; smaller MED = higher ENaC activation potency. Summed up:
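Xenopus oocytes injected with human ENaC δ, β and γ cRNA, cultured 16–72 hr, voltage-clamped 30 mV below resting potential in ND96 (pH 7.6) by two-electrode voltage clamp. Compounds (0.1 nM–300 μM) perfused at rising concentrations every 3 min. MED = lowest dose raising current ≥10%, or raising 5 μM capsazepine-evoked current ≥25%, whichever smaller.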
On the technique in general: In two-electrode clamp one electrode senses voltage and the other passes current.
The compound `Oc1ccc(NC(=S)NCCc2ccccc2)cc1O` [Example 47, 1-(3,4-dihydroxyphenyl)-3-(2-phenylethyl)thiourea] displayed an MED of 5 µM.

Consider `OC(CNC(=S)NCc1ccccc1)c1ccccc1` (stereo not drawn) [Example 54], for which the MED turned out to be 1 µM. The result for `NC(=O)[C@@H](NC(=S)NCCc1ccccc1)c1ccccc1` [Example 103] reads 3 µM; that for `C[C@@H](NC(=S)NCCc1ccccc1O)c1ccc(O)c(O)c1` [Example 104], 0.06 to 0.1 µM; that for `O=C1C(c2ccccc2)NC(=S)N1CCc1ccccc1` (stereo not drawn) [Example 49], 30 µM. The compound `COC(=O)c1ccc(CNC(=S)NCCc2ccccc2)cc1` [Example 56] had an MED of 10 µM. Compound `C[C@@H](NC(=S)Nc1c(O)cccc1O)c1ccccc1` [Example 91] gave an MED of 1 µM. The result for `CCC[C@@H](NC(=S)NCCc1ccccc1O)c1ccccc1` [Example 99] reads 10 µM; that for `O=C(O)c1ccccc1NC(=S)Nc1ccc(Cl)cc1` [Example 117], 0.3 µM; that for `COc1cccc(OC)c1NC(=S)NCCc1c[nH]c2ccc(O)cc12` [Example 126], 10 µM. In turn, `CN(Cc1ccc(O)c(O)c1)C(=S)NCCc1ccc(Cl)cc1` [Example 5] yielded an MED of 1 µM. `OCCNC(=S)NCc1ccccc1` [Example 15] showed an MED of 30 µM. In the case of `Oc1ccccc1CNC(=S)NCCc1ccccc1` [Example 61] it was 30 µM. In the case of `CN(CCc1ccccc1)C(=S)NCc1ccccc1` [Example 66] it was 3 to 10 µM; in that of `S=C(NCCC1CCCCC1)NCc1ccccc1` [Example 70], 10 µM.
